Assays:
[1] = XRPD of stressed pioglitazone HCl binary/acidified compacts (free base formation); assay type: physicochemical; settings: for Inhibition of disproportionation via acidification (Table 6 and FIGS. 2 and 3): organic acid in a 1:1 weight ratio with the carboxylate excipient, NIR and XRPD; for Inhibition of disproportionation by organic acid (XRPD, FIG. 2): pioglitazone HCl compacts containing MgSt with organic acids, 40° C./75% RH open dish
Protocol: (§1) An understanding of pioglitazone HCl salt disproportionation was obtained by studying each excipient individually. All of the API and excipient powders were gravimetrically dispensed into 1-dram glass vials using the Symyx Powdernium powder dispensing robot. Binary mixtures containing 250 mg of pioglitazone HCl salt and approximately 30 mg of the excipients were dispensed to create a 9:1 weight ratio mixture. Pharmaceutically relevant formulation matrix samples, or pseudo formulations, were also prepared. The compact target weight was 280 mg with a final composition of 45% of pioglitazone HCl salt, 25% avicel, 25% mannitol and 5% of the remaining excipients.
(§2) Upon completion of the powder dispensing, the vials were removed from the robot and mixed using a Resodyn Acoustic Mixer (LabRAM). The powders were mixed for 30 seconds at 30% intensity to produce homogeneous mixtures. The powders were then poured from the DRAM vial into a ½ inch die. A single compact from each DRAM vial was manually compressed using a compression force of 2000-3000 lbs and a dwell time of 5 seconds. Compacts were stressed at 40° C./35% RH and 40° C./75% RH. The sample preparation and reference for each compact can be seen in Table 2.
XRPD spectroscopy was also used to quantify the level of disproportionation in selected stressed samples of pioglitazone HCl. XRPD Spectroscopy is more sensitive to free base than NIR, making it suitable for samples with little or no disproportionation. The XRPD spectra were collected on the Panalytical X'pert Pro diffractometer with Cu Ka1 radition of 1.5406 Å in the transmission mode. The samples were scanned between a two theta range of 4 and 20° at a step size of 0.0167° for one hour at ambient conditions. The tube power used was 45 kV and 40 mA. In the XRPD pattern, the pioglitazone crystalline free base form has four specific peaks at 7.8weak, 9.1strong, 10.3strong and 15.1moderate 2-theta. The pioglitazone HCl form has a doublet peak centered at 8.6 2-theta.

[2] = cited from earlier work
[3] = aqueous; cited from earlier work
[4] = FT-NIR monitoring of loss of HCl salt in stressed pioglitazone HCl binary/acidified compacts; assay type: physicochemical; settings: MgSt and organic acid compacts, 40° C./75% RH open dish
Protocol: as §1, §2
FT-NIR reflectance spectroscopy was used to monitor the loss of HCl salt throughout the binary and pseudo formulation studies. […]

For Citric Acid, which “Inhibition of disproportionation via acidification (Table 6 and FIGS. 2 and 3)” value (“Inhibition … (Table 6 and FIGS. 2 and 3)” below) [1] is on record?
The value was “not effective in inhibiting disproportionation”.

What about the “Inhibition of disproportionation by organic acid (XRPD, FIG. 2)” value (from here on “Inhibition … (XRPD, FIG. 2)”) [1] of the same compound?
The value was “do not effectively inhibit disproportionation”.

What about the “pKa Values (first value)” value [2] of the same compound?
The value was 3.2.

And the “pKa Values (second value)” value [2]?
Its value is 4.8.

What about the “pKa Values (third value)” value ([2]; third pKa printed in cell) of the same compound?
The value was 6.4.

With O=C(O)/C=C/C(=O)O [Fumaric Acid] as the compound, how does the “Aq. Sol.” value [3] read?
Its value is 0.0063 g/mL.

What about the “Inhibition … (Table 6 and FIGS. 2 and 3)” value [1] of the same compound?
The value was “not effective in inhibiting disproportionation”.

And the “Inhibition … (XRPD, FIG. 2)” value [1]?
The value was “do not effectively inhibit disproportionation”.

And the “pKa Values (first value)” value [2]?
Its value is 3.0.

Which “Aq. Sol.” value [3] does the source give for O=C(O)C(=O)O [Oxalic Acid] here?
The value was 0.14 g/mL.

What about the “Inhibition … (Table 6 and FIGS. 2 and 3)” value [1] of the same compound?
The value was “not effective in inhibiting disproportionation”.

And the “Inhibition … (XRPD, FIG. 2)” value [1]?
The value was “do not effectively inhibit disproportionation”.

And the “pKa Values (first value)” value [2]?
Its value is 1.25.

And the “pKa Values (second value)” value [2]?
Its value is 4.14.

For O=C(O)C(O)C(O)C(=O)O (stereo not shown) [Tartaric Acid], which “Inhibition of disproportionation by organic acid (NIR, Table 6)” value [4] is on record?
The value was “could inhibit disproportionation”.

And the “Aq. Sol.” value [3]?
Its value is 1.3 g/mL.

And the “Inhibition … (Table 6 and FIGS. 2 and 3)” value [1]?
The value was “completely inhibited”.

What about the “Inhibition … (XRPD, FIG. 2)” value [1] of the same compound?
Its value is “successfully inhibit disproportionation”.

And the “pKa Values (first value)” value [2]?
Its value is 3.0.

What about the “pKa Values (second value)” value [2] of the same compound?
The value was 4.2.

Which “Inhibition of disproportionation by organic acid (NIR, Table 6)” value [4] does the source give for O=C(O)/C=C\C(=O)O [Maleic Acid] here?
The value was “could inhibit disproportionation”.

And the “Aq. Sol.” value [3]?
The value was 0.78 g/mL.

What about the “Inhibition … (Table 6 and FIGS. 2 and 3)” value [1] of the same compound?
Its value is “completely inhibited”.

What about the “Inhibition … (XRPD, FIG. 2)” value [1] of the same compound?
The value was “successfully inhibit disproportionation”.

And the “pKa Values (second value)” value [2]?
Its value is 6.3.

Source: US9339543B2, “Pharmaceutical compositions that inhibit disproportionation” (Merck Sharp & Dohme Corp., priority 2011, dated 2016)
